Data set [1] can be described thus: Toxicity study of Boc-lysine trifluoroacetic acid (BLT) in nude mice. The note with it: 100 mg/kg BLT i.p. in DMSO on days 1, 8, 15; male nude mice; vs DMSO-treated controls. It is filed as in vivo. The protocol:
Rationale: BLT must have no detectable toxic effects at levels that result in an MRS-visible signal in vivo if it were to be used as an imaging agent. To verify this, we monitored the toxicity of 100 mg/kg BLT (˜3 mM plasma concentration), which, based on previously published studies of fluorinated drugs, was expected to result in an MRS-detectable signal. (Hamstra, et al., Mol Ther, 10: 916-928, 2004; McSheehy, et al., Cancer Res, 60: 2122-2127, 2000; Gade, et al., Magn Reson Med, 52: 169-173, 2004; Chung, et al., Clin Cancer Res, 10:3863-3870, 2004; Aboagye, et al., Cancer Res, 58: 4075-4078, 1998).
Methods and Results: Four male nude mice were injected intraperitoneally with 100 mg/kg BLT in 40 μl of DMSO and 4 mice were injected with 40 μl of DMSO alone on days 1, 8, and 15 of the study. The mice were monitored daily for changes in weight, skin and hydration status, activity, behavior, feeding, and neurological status. On day 16, blood samples were collected, and blood counts and hepatic and kidney functions assessed (bilirubin, total protein, aspartate aminotransferase, alanine aminotransferase, creatinine, and blood urea nitrogen). At the end of the study, following animal euthanasia, mice were dissected and tissue samples obtained for histology (hematoxylin-eosin staining).

In a further data set the test system is PC-3 tumor. The experiment in a line: 19F/31P/1H MRS of PC-3 tumors after BLT injection, with or without SAHA treatment (Example 2). It is filed as in vivo, mice. The protocol:
Methods and Results: PC-3 cells (10^6) were injected into the flank of male nude mice. MR experiments were first performed when tumors were ˜1 cm in diameter. Mice were anesthetized using isoflurane. A 10-mm home-built ^19F surface coil (milled from a polymer-based flexible substrate using a ProtoMat C100/HF (LPKF Laser & Electronics, Wilsonville, Oreg.)) was placed over the tumor, and the animal placed at the center of the magnet. Varacator diodes in the impedance matching circuitry provided a means to match and tune the coil from the console. Following localization, a T2-weighted image of the tumor was recorded using the RARE sequence (TE=45 ms, TR=2 s) via the ^19F surface coil tuned to ^1H. Localized shimming was performed using FASTMAP and achieved ˜20 Hz line width for the water peak. A localized ^1H spectrum was then acquired using a single-voxel PRESS sequence (TE=21 ms, TR=3 s, 96 scans) with VAPOR water suppression. Following retuning of the coil to ^19F, a ‘baseline’ ^19F spectrum was then acquired using a one-pulse sequence (45° flip angle, 300 scans, TR=1 s). A microsphere filled with 20 mM trifluorotoluene (−63.7 ppm) served as an external reference. 100 mg/kg BLT (in 40 μl DMSO) was then injected i.p. and sequential 5-minute ^19F spectra acquired over 90 minutes. The ^19F surface coil was then replaced with a ^31P coil and a spectrum acquired from the tumor region using a one-pulse sequence (30° flip angle, 900 scans, TR=2 s). Adequate SNR was achieved within 30 min.
Following 1 week of treatment, the MR study was repeated.

The test system of data set [2] is PC3 human prostate cancer cells tumor. As to the kind of experiment: In vivo detection of HDAC inhibition by MRS in PC3 tumors (Example 3). Set-up: species or system mice. The protocol:
Methods. 5×10^6 PC3 human prostate cancer cells suspended in matrigel were injected subcutaneously in male CD-1 nude mice (n=5). When an average tumor volume of 0.2 cm^3 was reached, mice were separated into 2 groups. The treated group (n=3) was treated daily with 50 mg/kg SAHA intraperitoneally, while the control mice were treated with carrier DMSO. MRS was performed on a 4.7T Biospec (Bruker Biospin, Billerica, Mass.) prior to treatment (day 0) and on days 2 and 7 of treatment, using a 1.5 cm (inner diameter) dual-tuned ^1H/^19F surface coil. […] BLT levels determined by ^19F MRS were normalized to the external reference aaa-trifluorotoluene (TFT) (Sigma-Aldrich Chemical Co., St. Louis, Mo.) in a micro-cell spherical bulb placed at a permanent location relative to the coil and expressed as % of maximum tumor BLT levels in each study. For each mouse and also for average values, a paired t-test of BLT evolution was performed for days 2 and 7 with respect to day 0. ^1H MRS data was analyzed by normalizing the tCho signal either to the total ^1H signal or to the internal water signal.

Another data set deals with MB435 tumor xenografts. As to the kind of experiment: PET of [18F]-FAHA in MB435 tumor xenograft-bearing nude rats (second Example 4). It is filed as in vivo, rat. The note with it: blocking study, SAHA 50 mg/kg i.p. 1 hour prior; p<0.01 unpaired t test. Here is the method:
Methods: [^18F]-FAHA was synthesized with high specific activity according to a method developed at M. D. Anderson Cancer Center. Human breast cancer cells, cell line MB435, grown as described in Example 3, were used to grow tumor xenografts in nude rats. Ten million cancer cells were injected subcutaneously in the neck area of six nude rats. When tumors were 1 cm in diameter, animals were anesthetized, injected with [^18F]-FAHA (37 MBq) and PET imaging was performed (dynamic) up to 60 min post-injection. Two days after the initial imaging, another PET imaging with [^18F]-FAHA was performed using a […] (SAHA). The animals were given SAHA (50 mg/kg) intraperitoneally 1 hour prior to injection of the radiotracer.

Data set [3] deals with HDAC activity in rat brain. The experiment in a line: PET imaging of HDAC activity in rat brain using [18F]-FAHA (Example 6). It counts as in vivo. The note with it: SAHA 50 mg/kg i.p. 1 hour prior; p<0.01 unpaired t test. The protocol:
Methods: [^18F]-FAHA was synthesized according to the methods developed in our laboratory in high specific activity. Imaging studies with [^18F]-FAHA were conducted in five rats using a PET scanner under isoflurane inhalation anesthesia. The animals were injected intravenously with 37 MBq of [^18F]-FAHA and dynamic scanning PET (0-60 min) was performed. During the imaging session, the rats were anesthetized with 1-1.5 vol % isoflurane/oxygen inhalation and continuously heated with a heating lamp. Two days after the initial study, another PET imaging was performed with [^18F]-FAHA using an […] (SAHA). Each animal was given SAHA (50 mg/kg), intraperitoneally 1 hour prior to injection of the [^18F]-FAHA.
In Table 6, “baseline” refers to brain uptake of FAHA without blocking by SAHA.

As for `CC(C)(C)OC(=O)N[C@@H](CCCCN)C(=O)O.O=C(O)C(F)(F)F` [BLT, Boc-lysine trifluoroacetic acid], in data set [1], the “toxicity (weight, behavior, blood counts, hepatic and kidney functions, histology)” value is “no indication of significant toxicity was observed”. Moreover, the “decrease in tumor BLT levels” value in the data set with PC-3 tumor (first 50 min following BLT injection i.p., PC-3 tumor, 19F MRS) was ~25%. The “19F MRS of BLT as indicator of HDAC inhibition” value in data set [2] (PC3 tumors, SAHA 50 mg/kg daily i.p., days 0, 2, 7, 100 mg/kg BLT i.p.) is given as “detects HDAC inhibition prior to effect on tumor size”.

As to `O=C(CCCCCCC(=O)Nc1ccccc1)NO` [SAHA, suberoylanilide hydroxamic acid, reference compound], the tumor growth result in the data set on PC-3 tumor (50 mg/kg SAHA in DMSO daily i.p., PC-3 tumor, preliminary data) was “inhibition of tumor growth”. For the same compound, the “BLT levels in the tumor in vivo (19F MRS, normalized to tumor size)” value in the data set with PC-3 tumor (1 week of 50 mg/kg SAHA daily i.p. vs DMSO control and pre-treatment) is listed as “higher”. In data set [2] (PC3 tumors following SAHA treatment 50 mg/kg daily i.p.), the “phosphomonoesters and choline-containing metabolites (31P MRS and 1H MRS)” value was “transient increase”. Also, the “effect on uptake of [18F]-FAHA inside tumor” value in the data set with MB435 tumor xenografts is recorded as “significantly inhibited”. Besides, in data set [3], the “effect on uptake of [18F]-FAHA inside brain” value is “significantly inhibited”.

The record behind these values is patent publication US20100278730A1, “Non-Invasive Molecular Imaging of Cellular Histone Deacetylase Substrate Using Magnetic Resonance Spectroscopy (MRS) or Positron Emission Tomography (PET)” (priority 2007, published 2010).
